According to US10471054B2, “CDK1 inhibitors of acetyl chrysin mannich base derivatives, synthesis and use thereof” (priority 2016, dated 2019):
≈ marks a conversion by molar mass, not a printed value. Read-outs that look alike come from different tables or passages of the source.

Tests used:
[1] = Solubility in Octanol, water and pH media; assay type: physicochemical
Description: (§1) The solubility and log P of acetyl ChrysinMannich base derivatives see TABLE 1.
(§2) CH-j is pKa 5.3, log P 1.63 in Octanol/Water at 37° C. […] (BA-j 77m/ml). CH-j belongs to BCS II (low solubility, high permeability) and solubility presents the pH dependence. […] CH-j is a pH dependent fast release. […] It is speculated that CH-j has more appropriate log P and solubility with more likely entering tissue cells than others solubility acetyl Chrysin Mannich base derivatives.
(§3) (about 20 times BA-f 277 μg/ml) and 564 μg/ml in water at 37° C. (about 1000 times BA-f 0.53m/ml). CH-f is BCS I (high solubility and permeability) and solubility presents the pH dependence. It is speculated that CH-f has more appropriate log P and solubility with entering systemic (blood system and tissue cells) than others solubility acetyl Chrysin Mannich base derivatives.

log P in Octanol/Water = assay type: physicochemical; settings: octanol/water, Octanol/Water at 37° C.
Description: as §1, §2, §3

pKa = assay type: physicochemical
Description: as §2, §3

MCF-7 and COS-7 = experiment: NO level, Rh-NO fluorescent probe imaging; assay type: cell-based; settings: 25 μM for 12, 24, 48 h, Rh-NO probe 5 μM
Description: [Organic Letters, 2008, 10: 2357-2360] […] This is because of cycloalkylamine-methyl releasing NO by Cope reaction, and the higher level of NO 4-methylpiperazine than 4-hydroxypiperidine.
FIG. 1-6: The performed fluorescence imaging with Rh—NO 5 μM, and add 25 μM of CH-j and CH-f for 12, 24, 48 h, affected the level of NO for 12, 24 and 48 h in MCF-7 and COS-7 by Single beam electron confocal fluorescence microscope (488/604 nm).

H-460 = experiment: Anti-cancer cells proliferation activity (MTT, 48 h); assay type: cell-based; settings: Homo sapiens, NCI-H460, H-460, MTT
Source text: (§4) Anti-cancer cells proliferationactivity of in vitro CH-j and CH-f were shown in TABLE 2 for the results of the screening of 5 cancers cells.

Hep G2 = experiment: as above; assay type: cell-based; settings: Homo sapiens, HepG2
Source text: as §4

MCF-7 [2] = experiment: as above; assay type: cell-based; settings: Homo sapiens, MCF7, MCF-7, MTT
Source text: as §4

PC-3 = experiment: as above; assay type: cell-based; settings: Homo sapiens, PC-3, MTT
Source text: as §4

BGC-823 = experiment: as above; assay type: cell-based; settings: Homo sapiens, BGC-823, MTT
Description: as §4
FIG. 2: The initial screening results of the anticancer activity of BGC-823 (MTT, for 48 h), and X-coordinate is the drug concentration (MTT, for 48 h), and Y-coordinate the cell survival rate (%) in vitro.

[3] = test system: 5 cancers cells (MCF-7, H-460, BGC-823, PC-3, Hep G2); experiment: Anti-cancer cells proliferation activity, average of 5 cancer cells; assay type: cell-based; settings: for IC50: average of 5 cancer cells
Source text: as §4

MCF-7 [4] = experiment: Hoechst 33258 fluorescence staining, apoptosis; assay type: cell-based; settings: 0, 5, 10, 20 μM for 24 h
Description: Hoechst 33258 is an active fluorescent dye with DNA specific binding, which is mainly combined with base area of DNA, which emits blue fluorescence when stimulated by ultraviolet light. The living cells emit uniform fluorescence, the apoptotic cells are bright blue fluorescence due to their chromatin fixation, dense and concentrated nuclei.
MCF-7 was treated with 0, 5, 10, 20 μM of CH-f and CH-j for 24 h, Hoechst 33258 fluorescence staining, and cell morphological changes were shown in FIG. 3-1. […] CH-f and CH-j are completely different from the cytotoxic drug HCPT, which appears to be apoptotic at low doses and necrotic at high doses in BGC-823.
FIG. 3-1 Hoechst 33258 staining results for MCF-7.

MCF-7 [5] = experiment: Autophagy in MCF-7; assay type: cell-based; settings: 50 μM for 9 h and 24 h
Bcl-2 = Bcl-2 expression in MCF-7; assay type: cell-based; settings: 10 μM for 24 h
CDK1 = CDK1 (Homo sapiens, UniProt P06493); experiment: CDK1 inhibition activity; assay type: biochemical
CDK1, sequence (P06493 whole entry, species assumed): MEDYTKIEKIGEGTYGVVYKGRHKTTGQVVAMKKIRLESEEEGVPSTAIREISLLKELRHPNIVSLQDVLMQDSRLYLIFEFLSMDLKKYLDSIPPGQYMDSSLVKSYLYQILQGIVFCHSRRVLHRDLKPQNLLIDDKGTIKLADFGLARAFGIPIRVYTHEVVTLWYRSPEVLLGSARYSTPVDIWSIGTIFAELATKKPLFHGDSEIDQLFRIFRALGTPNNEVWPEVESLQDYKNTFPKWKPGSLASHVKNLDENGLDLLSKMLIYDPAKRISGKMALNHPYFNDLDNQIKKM
CDK1, sequence (P14635 whole entry partner, species assumed): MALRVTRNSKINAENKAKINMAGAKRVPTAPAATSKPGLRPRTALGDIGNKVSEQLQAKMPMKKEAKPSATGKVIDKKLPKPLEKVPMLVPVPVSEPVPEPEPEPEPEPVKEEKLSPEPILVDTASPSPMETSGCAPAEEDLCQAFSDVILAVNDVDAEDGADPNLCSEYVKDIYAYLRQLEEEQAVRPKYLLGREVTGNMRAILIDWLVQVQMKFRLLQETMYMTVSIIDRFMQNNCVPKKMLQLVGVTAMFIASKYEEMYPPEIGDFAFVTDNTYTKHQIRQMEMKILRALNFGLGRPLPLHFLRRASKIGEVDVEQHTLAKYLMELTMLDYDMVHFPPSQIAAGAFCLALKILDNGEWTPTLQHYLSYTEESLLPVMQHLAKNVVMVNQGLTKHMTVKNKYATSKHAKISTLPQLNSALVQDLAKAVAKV

## CC(=O)c1c(O)c(CN2CCN(C)CC2)c2oc(-c3ccccc3)cc(=O)c2c1O [CH-f, 6-Acetyl-5,7-dihydroxy-8-(4-methylpiperazin-1-ylmethyl)-2-phenyl-chromen-4-one]
[1]
  BCS class: BCS I
[1]; 37° C.
  Solubility in water relative to BA-f: about 1000 times
[1]; CH-j vs BA-j, CH-f vs BA-f, 37° C.
  Solubility in Octanol relative to BA analogue: about 20 times
[1]; organic solvent or mixture, Octanol, 37° C., read-out: Solubility in Octanol
  solubility: 5510 µg/mL (≈ 13.5 mM)
[1]; water, 37° C., read-out: Solubility in H2O
  solubility: 564 µg/mL (≈ 1.38 mM)
Log P in Octanol/Water
  logP: 0.99
pKa
  pKa: 4.9
MCF-7 and COS-7
  Level of NO, red fluorescence: stronger red fluorescence than CH-j in MCF-7
H-460
  IC50: 5.6 ± 1.33 µM
Hep G2
  IC50: 6.1 ± 1.45 µM
MCF-7 [2]
  IC50: 5.2 ± 1.24 µM
PC-3
  IC50: 5.1 ± 1.17 µM
BGC-823
  IC50: 5.2 ± 1.21 µM
[3]
  Anti-proliferative activity, times stronger than BA-j: 2 times
  Anti-proliferative activity, times stronger than Chrysin: 5 times
  IC50: 2.3 µg/mL
[3]; MTT, 48 h
  IC50: 5.6 µM
MCF-7 [4]
  Apoptosis by Hoechst 33258 staining: apoptosis cell percentage in dose dependent increase
MCF-7 [5]
  Autophagy: can cause autophagy
Bcl-2
  Bcl-2 expression: Bcl-2 expression can be suppressed
CDK1
  CDK1 inhibition, times stronger than BA-j: about 2 times
CDK1; read-out: inhibiting CDK1 CC50
  CDK1 50% inhibitory concentration: 130 nM
